Experimental data reported in US20040024024A1, “Aromatic sulfone hydroxamates and their use as protease inhibitors” (priority 2001, published 2004).

Assays:
Assay in all cases: In vitro MMP inhibition, IC50 determination (fluorogenic substrate I)
Type in all cases: biochemical
[1] = target: T1, Human recombinant MMP-1 (Homo sapiens, UniProt P03956)
T1 construct: made in house; host or cells: MMP-1-transfected HT-1080 cells (spent media)
T1 sequence (P03956 100-469): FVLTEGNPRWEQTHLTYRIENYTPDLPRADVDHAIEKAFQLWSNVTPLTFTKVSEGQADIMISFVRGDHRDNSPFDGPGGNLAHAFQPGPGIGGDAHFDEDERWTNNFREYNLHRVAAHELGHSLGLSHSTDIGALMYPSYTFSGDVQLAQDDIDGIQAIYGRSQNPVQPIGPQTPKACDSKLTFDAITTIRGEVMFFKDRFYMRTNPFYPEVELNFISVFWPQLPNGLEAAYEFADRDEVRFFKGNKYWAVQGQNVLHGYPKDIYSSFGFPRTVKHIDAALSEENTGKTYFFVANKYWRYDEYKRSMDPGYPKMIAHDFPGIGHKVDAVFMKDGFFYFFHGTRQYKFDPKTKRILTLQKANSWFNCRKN
In short: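 Inhibitor dilutions were made in 100 mM Tris-HCl/100 mM NaCl/10 mM CaCl2 buffer, pH 7.5, and incubated at room temperature with activated proenzyme (from transfected HT-1080 media; APMA or trypsin) and 4 μM quenched methoxycoumarin peptide substrate. Loss of 415 nm fluorescence (328 nm excitation) against concentration gave IC50.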

[2] = target: T2, Human recombinant MMP-2 (Homo sapiens, UniProt P08253)
T2 construct: made in house; host or cells: MMP-2-transfected p2AHT2 cells
T2 sequence (P08253 110-660): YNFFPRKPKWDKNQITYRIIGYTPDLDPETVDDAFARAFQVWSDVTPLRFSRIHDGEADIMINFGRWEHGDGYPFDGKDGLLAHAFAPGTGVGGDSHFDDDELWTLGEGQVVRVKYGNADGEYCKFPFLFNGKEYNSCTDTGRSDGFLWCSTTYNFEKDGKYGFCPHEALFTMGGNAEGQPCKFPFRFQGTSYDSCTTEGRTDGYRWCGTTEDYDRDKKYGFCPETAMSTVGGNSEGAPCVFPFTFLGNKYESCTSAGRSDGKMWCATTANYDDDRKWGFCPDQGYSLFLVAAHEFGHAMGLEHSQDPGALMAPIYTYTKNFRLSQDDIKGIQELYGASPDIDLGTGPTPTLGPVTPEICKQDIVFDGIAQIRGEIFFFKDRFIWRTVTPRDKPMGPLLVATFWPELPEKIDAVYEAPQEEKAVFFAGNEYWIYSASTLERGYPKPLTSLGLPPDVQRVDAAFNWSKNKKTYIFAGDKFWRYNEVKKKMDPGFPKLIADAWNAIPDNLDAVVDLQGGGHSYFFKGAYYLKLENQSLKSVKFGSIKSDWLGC
In short: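 IC50 was derived from the concentration-dependent fall in fluorescence (ex 328, em 415 nm) on Gly-Leu cleavage of 4 μM MCA/Dpa-quenched substrate I. Assays ran at room temperature in pH 7.5 Tris/NaCl/CaCl2/Brij buffer with MMP-2 activated by trypsin or APMA; inhibitors were diluted from 1% DMSO stocks.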

[3] = target: T3, Human recombinant MMP-9 (Homo sapiens, UniProt P14780)
T3 construct: made in house; host or cells: MMP-9-transfected HT1080 cells (spent media)
In short: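 Reduction in fluorescence (328 nm excitation, 415 nm emission) from cleavage of 4 μM quenched peptide substrate I, measured at room temperature against inhibitor concentration, gave IC50. Enzyme: trypsin- or APMA-activated MMP-9 purified from transfected HT1080 medium; buffer 100 mM Tris, 100 mM NaCl, 10 mM CaCl2, pH 7.5.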

[4] = target: T4, Human recombinant MMP-13 (Homo sapiens, UniProt P45452)
T4 construct: made in house; host or cells: baculovirus / insect cells
In short: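 Fluorescence at 415 nm (excitation 328 nm) reports Gly-Leu cleavage of 4 μM quenched methoxycoumarin peptide substrate I. Human recombinant MMP-13, activated by trypsin or APMA, was incubated at room temperature with varied inhibitor concentrations in pH 7.5 Tris/NaCl/CaCl2 buffer; IC50 derived from reduced fluorescence.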

[5] = target: T5, Human recombinant MMP-14 (Homo sapiens, UniProt P50281)
T5 construct: The catalytic domain enzyme was expressed in E. coli inclusion bodies, solubilized in urea; made in house
In short: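 IC50 came from reduced fluorescence (ex 328 nm, em 415 nm) as inhibitor concentration rose, with 4 μM substrate I cleaved at Gly-Leu. Room-temperature incubation in pH 7.5 Tris buffer with 10 mM CaCl2; the E. coli-expressed, refolded MMP-14 catalytic domain was activated with trypsin or APMA.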

[6] = value outside parentheses (Ki in parenthesis)

T3 sequence (P14780 107-707 limits assumed): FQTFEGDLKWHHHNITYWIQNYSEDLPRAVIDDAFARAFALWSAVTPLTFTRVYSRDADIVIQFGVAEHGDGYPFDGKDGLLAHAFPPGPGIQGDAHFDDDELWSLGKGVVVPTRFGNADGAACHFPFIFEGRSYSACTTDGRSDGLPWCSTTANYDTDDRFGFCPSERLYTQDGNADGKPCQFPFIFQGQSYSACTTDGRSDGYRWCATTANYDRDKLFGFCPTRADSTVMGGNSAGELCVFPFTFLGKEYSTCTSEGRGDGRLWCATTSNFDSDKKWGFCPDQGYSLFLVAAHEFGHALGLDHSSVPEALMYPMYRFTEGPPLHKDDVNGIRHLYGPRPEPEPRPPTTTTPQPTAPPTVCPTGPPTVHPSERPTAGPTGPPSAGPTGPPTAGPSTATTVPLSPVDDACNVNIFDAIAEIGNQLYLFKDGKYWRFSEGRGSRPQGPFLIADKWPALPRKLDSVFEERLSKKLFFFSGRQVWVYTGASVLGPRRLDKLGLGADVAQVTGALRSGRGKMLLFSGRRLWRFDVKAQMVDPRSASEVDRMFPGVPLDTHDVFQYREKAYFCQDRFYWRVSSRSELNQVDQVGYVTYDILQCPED

IC50 [1, 6] [nM] | IC50 [2, 6] [nM] | IC50 [3, 6] [nM] | IC50 [4, 6] [nM] | IC50 [5, 6] [nM] | IC50 ([1]; value outside parenthesis) [nM] | IC50 ([2]; value outside parenthesis) [nM] | IC50 ([3]; value outside parenthesis) [nM] | IC50 ([4]; value outside parenthesis) [nM] | IC50 ([5]; value outside parenthesis) [nM] | SMILES | further results
– | – | – | – | – | > 10000 | 193 | 1470 | 4.7 | > 10000 | O=C1CN(c2ccccc2Cl)C(=O)N1CCCOc1ccc(S(=O)(=O)C2(C(=O)NO)CCOCC2)cc1 [Example 224] | –
– | – | – | – | – | > 10000 | 0.1 | 37.9 | < 0.1 | > 10000 | COc1ccc(CCCCc2ccc(S(=O)(=O)C3(C(=O)NO)CCOCC3)cc2)cc1 [Example 256] | –
– | – | – | – | – | 3610 | 445 | 341 | 1.1 | > 10000 | CC(C)c1ccc(-c2nnc(CCCOc3ccc(S(=O)(=O)C4(C(=O)NO)CCOCC4)cc3)o2)cc1 [Example 247] | –
– | – | – | – | – | > 10000 | 118 | 1700 | 3 | > 10000 | O=C(NO)C1(S(=O)(=O)c2ccc(OCCCc3nnc(CC4CCCCC4)o3)cc2)CCOCC1 [Example 262] | –

Continued, compound first:

SMILES | IC50 [1, 6] [nM] | IC50 [2, 6] [nM] | IC50 [3, 6] [nM] | IC50 [4, 6] [nM] | IC50 [5, 6] [nM] | IC50 ([1]; value outside parenthesis) [nM] | IC50 ([2]; value outside parenthesis) [nM] | IC50 ([3]; value outside parenthesis) [nM] | IC50 ([4]; value outside parenthesis) [nM] | IC50 ([5]; value outside parenthesis) [nM] | further results
COC(=O)c1cccc(OCCOc2ccc(S(=O)(=O)C3(C(=O)NO)CCOCC3)cc2)c1 [Example 668] | – | – | – | – | – | – | – | – | – | – | IC50 ([1]; value outside parentheses): 7660 nM; IC50 ([2]; value outside parentheses): 101 nM; IC50 ([3]; value outside parentheses): 288 nM; IC50 ([4]; value outside parentheses): 1.53 nM; IC50 ([5]; value outside parentheses): 2110 nM
CC(CCc1ccccc1)Oc1ccc(S(=O)(=O)C2(C(=O)NO)CCOCC2)cc1 (stereo not shown) [Example 467] | > 10000 | 940 | 450 | 120 | > 10000 | – | – | – | – | – | –
O=C(NO)C1(S(=O)(=O)c2ccc(OCCSc3nc4cc(Cl)ccc4s3)cc2)CCOCC1 [Example 281] | – | – | – | – | – | > 10000 | 70.4 | 276 | 1.3 | > 10000 | –
CCCC(CCOc1ccc(S(=O)(=O)C2(C(=O)NO)CCOCC2)cc1)SC (stereo not shown) [Example 475] | > 10000 | 30 | 120 | 2 | 3600 | – | – | – | – | – | –
CN(C)c1ccc(NC(=O)CCCOc2ccc(S(=O)(=O)C3(C(=O)NO)CCOCC3)cc2)cc1 [Example 357] | > 10000 | 10.2 | 952 | 1.7 | > 10000 | – | – | – | – | – | –
Cc1ccc(-c2noc(CCCOc3ccc(S(=O)(=O)C4(C(=O)NO)CCOCC4)cc3)n2)c(F)c1 [Example 218] | – | – | – | – | – | > 10000 | 40.4 | 2970 | 1.4 | > 10000 | –
COCCN1CCC(C(=O)NO)(S(=O)(=O)c2ccc(OCCCn3nnc(-c4ccc(SC)cc4)n3)cc2)CC1 [Example 130] | – | – | – | – | – | 4610 | 4.7 | 50.2 | 0.3 | 500 | –
O=C(NO)C1(S(=O)(=O)c2ccc(OC3CCOCC3)cc2)CCOCC1 [Example 480] | 4200 | 18 | 60 | 11 | 1400 | – | – | – | – | – | –
C/C(=C\c1ccccc1)COc1ccc(S(=O)(=O)C2(C(=O)NO)CCOCC2)cc1 [Example 479] | 2700 | 4 | 14 | 3 | 2000 | – | – | – | – | – | –
O=C(CCOc1ccc(S(=O)(=O)C2(C(=O)NO)CCOCC2)cc1)c1ccccc1 [Example 495] | – | – | – | – | – | – | – | – | – | – | IC50 ([1]; value outside parentheses): 815 nM; IC50 ([2]; value outside parentheses): 1.9 nM; IC50 ([3]; value outside parentheses): 25.8 nM; IC50 ([4]; value outside parentheses): 1.7 nM; IC50 ([5]; value outside parentheses): 505 nM
